# Measured values: the supplement of paper PMC11208160
# Test: recombinant barcode read abundance after kanamycin selection (control-corrected) (log10(CPM+1)); higher = more efficient recombination; sequences stand for … in AGTGCAGAGAAAATCGGCCAGTTTTCTCTGCCTGCAGTCCGCATGCCGT…AGATTTATGCAGCGGACTGCCTTTCTCCCAAAGTGATAAACCGGACAGTATCATGGACCGGTTTTCCCGGTAATCCGTATTTGCAAGGTTGGTTTCACT; site = the 11-nt target
# Procedure: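 Pooled E. coli target-specificity screen for the IS621 bridge recombinase. Each library plasmid pairs an 11-nt target (CT core) with a bridge RNA whose target-binding loop (9-nt LTG + 4-nt RTG) is reprogrammed; the rest of the 177-nt WT IS621 bridge RNA scaffold is fixed. The plasmid is co-electroporated with a WT donor plasmid; recombinase is induced with 0.1 mM IPTG and recombinants are selected on kanamycin. Recombinant barcodes are sequenced, converted to CPM, averaged over two biological replicates and corrected by the unselected control CPM. Molecule = full bridge RNA written as DNA: LTG = specificity nt 1-9, RTG = reverse complement of specificity nt 8-11, in the WT scaffold.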
# 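Note: IS621 recombinase and bridge RNA in Escherichia coli cells.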
row,Sequence,recombinant barcode read abundance (log10)
1,CACGATGCTTGGGTTCTAACCTGTTGCCT (site CACGATGCTAG),0.789
2,CACAAGTCTTGGGTTCTAACCTGTTGCCG (site CACAAGTCTCT),0.182
3,TCGTTCGCTTGGGTTCTAACCTGTTGCCT (site TCGTTCGCTAG),0.21
4,CTGGAAACTTGGGTTCTAACCTGTTGCCT (site CGGGTAACTAG),0.0164
5,CGGCGTGCTTGGGTTCTAACCTGTTGCCT (site CAGCGTGCTAG),0.555
6,GGAATCCCTTGGGTTCTAACCTGTTGCCT (site GGAATTCCTAG),0.0836
7,TACAGGACTTGGGTTCTAACCTGTTGCAG (site TACAGGACTCT),2.15
8,CGACAGTCTTGGGTTCTAACCTGTTGCCT (site CGACAGTCTAG),0.687
9,TAGAAGTCTTGGGTTCTAACCTGTTGCTG (site TAGAAGTCTCA),1.46
10,ACGTTGCCTTGGGTTCTAACCTGTTGCCT (site ACATTGCCTAG),0.188
11,GCCGATACTTGGGTTCTAACCTGTTGCCT (site GCCGAAACTAG),0
12,CTAATGGCTTGGGTTCTAACCTGTTGCCT (site CTAATGGCTAG),0.178
13,GGGACGACTTGGGTTCTAACCTGTTGCTA (site GGGACGACTTA),1.35
14,AGCCCTCCTTGGGTTCTAACCTGTTGCTA (site AGCCCTCCTAA),0.0446
15,CCGGGATCTTGGGTTCTAACCTGTTGCCT (site GCGGGATCTAG),0.161
16,ATGACCGCTTGGGTTCTAACCTGTTGCCA (site ATGACCGCTTG),1.28
17,AGCCCTCCTTGGGTTCTAACCTGTTGCAG (site GAAATAACTAC),0.114
18,GACTTGGCTTGGGTTCTAACCTGTTGCCT (site GACTTGGCTAG),0.146
19,GGCGTAGCTTGGGTTCTAACCTGTTGCCT (site GCCGTAGCTAG),0.624
20,ATAAGTGCTTGGGTTCTAACCTGTTGCCA (site GTGAGTGCTTG),0.0783
21,GTCGGAGCTTGGGTTCTAACCTGTTGCCA (site GTCGGAGCTTG),0.959

row,Sequence,recombinant barcode read abundance (log10)
1,TTGGAGGCTTGGGTTCTAACCTGTTGCCT (site TTGGAGGCTAG),1.45
2,TGTGACTCTTGGGTTCTAACCTGTTGCCT (site TGAGACTCTAG),0.088
3,TGTAAGGCTTGGGTTCTAACCTGTTGCTT (site TGTAAGGCTAA),0.27
4,AGATCTCCTTGGGTTCTAACCTGTTGCCT (site AGATCTCCTAG),0.313
5,GTCCGTCCTTGGGTTCTAACCTGTTGCGT (site GTCCGTCCTAG),0.09
6,TGTAATTCTTGGGTTCTAACCTGTTGCCT (site TGTAATTCTAG),0.18
7,CAATATCCTTGGGTTCTAACCTGTTGCCT (site CAGTATCCTAG),0.143
8,ACCGGTCCTTGGGTTCTAACCTGTTGCGT (site ACCGGTCCTAC),2.14
9,TTACCCACTTGGGTTCTAACCTGTTGCCT (site TTACCTACTAG),0.151
10,GGGGCTTCTTGGGTTCTAACCTGTTGCAT (site GGGACTTCTAT),0.158
11,CAGACTTCTTGGGTTCTAACCTGTTGCCT (site CGGACTTCTAG),0.039
12,TAGGTTCCTTGGGTTCTAACCTGTTGCCT (site TCGGTTCCTAG),0.161
13,GACGGATCTTGGGTTCTAACCTGTTGCGT (site GACGGATCTAC),0.705
14,GCGACTCCTTGGGTTCTAACCTGTTGCAT (site GCGGCTCCTAT),0.14
15,CAGTTCGCTTGGGTTCTAACCTGTTGCCT (site CAGTTAGCTAG),0.141
16,GGATATCCTTGGGTTCTAACCTGTTGCTT (site GGATATCCTAA),0.284
17,GAGCGCTCTTGGGTTCTAACCTGTTGCCT (site GAGCGCTCTAG),1.48
18,GGTCCGGCTTGGGTTCTAACCTGTTGCGG (site GATCCGTCTCC),0.0623
19,TTCCCTACTTGGGTTCTAACCTGTTGCCT (site CTCCCAACTAG),0.102
20,ACTTAGCCTTGGGTTCTAACCTGTTGCAT (site ACTTAGCCTAT),1.27
